Literature values, collected in patent publication US20190015339A1, “PHARMACEUTICAL COMBINATION FORMULATION” (SHIN POONG PHARMACEUTICAL CO., LTD., priority 2015, published 2019).
Read-outs that look alike come from different tables or passages of the source.

In the case of CCOc1nc2cccc(C(=O)OC(C)OC(=O)OC3CCCCC3)c2n1Cc1ccc(-c2ccccc2-c2nnn[nH]2)cc1 (centres unmarked) [candesartan cilexetil], the absolute bioavailability (used as a solution) is listed as “about 40%” and the absolute bioavailability (used as a tablet formulation) is listed as “about 15%”.
